# Assay results from the supplement of paper PMC11061612.
# Tests used:
# Test in all cases: combination Emax (second highest fraction inhibited in the dose matrix, 72 h); higher = more inhibition; extreme values may be limits of the assay
# [1] = tested on: NCI-H446 (Small Cell Lung Carcinoma)
# In short: (§1)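 Bliss excess equals the observed combination effect minus the expected value EA + EB − EA·EB, where EA and EB are the effects of each agent alone. Combination Emax is the second-highest inhibition within the matrix. Inhibition was scaled from CellTiter-Glo 2.0 luminescence, with 0 set by vehicle wells and 1 by blank wells, after 72 hours of two-drug dosing of cells plated in 1536-well plates.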
# [2] = tested on: OAW-42 (Ovarian Carcinoma)
# In short: as §1
# [3] = tested on: GP5d (Colorectal Carcinoma)
# In short: as §1
# [4] = tested on: RCM-1 (Colorectal Carcinoma)
# In short: as §1
# [5] = tested on: MKN45 (Gastric Carcinoma)
# In short: as §1
# [6] = tested on: HEC-1 (Endometrial Carcinoma)
# In short: as §1
# WM793B (Melanoma) = tested on: WM793B (Melanoma)
# In short: as §1
# [7] = tested on: PANC-03-27 (Pancreatic Carcinoma)
# In short: as §1
# [8] = tested on: PSN1 (Pancreatic Carcinoma)
# In short: as §1
# SF539 (Glioblastoma) = tested on: SF539 (Glioblastoma)
# In short: as §1
# [9] = tested on: OPM-2 (Plasma Cell Myeloma)
# In short: as §1
# IST-MES1 (Mesothelioma) = tested on: IST-MES1 (Mesothelioma)
# In short: as §1
# [10] = tested on: LXF-289 (Lung Adenocarcinoma)
# In short: as §1
# [11] = tested on: RKN (Other Solid Carcinomas)
# In short: as §1
# [12] = tested on: OVMIU (Ovarian Carcinoma)
# In short: as §1
# [13] = tested on: SHP-77 (Small Cell Lung Carcinoma)
# In short: as §1
# [14] = tested on: SK-PN-DW (Other Solid Carcinomas)
# In short: as §1
# [15] = tested on: HCT-15 (Colorectal Carcinoma)
# In short: as §1
# [16] = tested on: LK-2 (Squamous Cell Lung Carcinoma)
# In short: as §1
# [17] = tested on: VAL (B-Cell Non-Hodgkin's Lymphoma)
# In short: as §1
Compound,combination Emax [1],combination Emax [2],combination Emax [3],combination Emax [4],combination Emax [5],combination Emax [6],combination Emax (WM793B (Melanoma)),combination Emax [7],combination Emax [8],combination Emax (SF539 (Glioblastoma)),combination Emax [9],combination Emax (IST-MES1 (Mesothelioma)),combination Emax [10],combination Emax [11],combination Emax [12],combination Emax [13],combination Emax [14],combination Emax [15],combination Emax [16],combination Emax [17]
"CC1(C)CCC(CN2CCN(c3ccc(C(=O)NS(=O)(=O)c4ccc(NCC5CCOCC5)c([N+](=O)[O-])c4)c(Oc4cnc5[nH]ccc5c4)c3)CC2)=C(c2ccc(Cl)cc2)C1 [Venetoclax] + C[C@@H]1COCCN1C2=NC(=NC(=C2)C3(CC3)[S@](=N)(=O)C)C4=C5C=CNC5=NC=C4 [AZD6738] (first compound max 1 µM, 7x7, partner max 10 µM)",0.924,0.561,0.739,0.78,0.678,0.41,0.814,0.781,0.396,0.87,0.943,0.396,0.554,0.226,0.537,0.697,0.929,0.71,0.494,1
"CC1(C)CCC(CN2CCN(c3ccc(C(=O)NS(=O)(=O)c4ccc(NCC5CCOCC5)c([N+](=O)[O-])c4)c(Oc4cnc5[nH]ccc5c4)c3)CC2)=C(c2ccc(Cl)cc2)C1 [Venetoclax] + C[C@@H](Nc1cc(F)cc(F)c1)c1cc(C(=O)N(C)C)cc2c(=O)cc(N3CCOCC3)oc12 [AZD8186] (first compound max 1 µM, 7x7, partner max 3 µM)",0.581,0.125,0.228,0.28,0.602,0.0634,0.36,0.592,0.313,0.287,0.513,0.176,0.224,0.18,0.575,0.322,0.862,0.138,0.0674,1
"CC1(C)CCC(CN2CCN(c3ccc(C(=O)NS(=O)(=O)c4ccc(NCC5CCOCC5)c([N+](=O)[O-])c4)c(Oc4cnc5[nH]ccc5c4)c3)CC2)=C(c2ccc(Cl)cc2)C1 [Venetoclax] + Cc1cc2ncnn2cc1Nc1ncc2c(n1)n(C1CCOCC1)c(=O)n2C [AZD7648] (first compound max 1 µM, 7x7, partner max 10 µM)",0.403,0.425,0.374,0.362,0.588,0.167,0.309,0.584,0.37,0.341,0.642,0.195,0.163,0.157,0.374,0.34,0.856,0.229,0.266,1
"CC1(C)CCC(CN2CCN(c3ccc(C(=O)NS(=O)(=O)c4ccc(NCC5CCOCC5)c([N+](=O)[O-])c4)c(Oc4cnc5[nH]ccc5c4)c3)CC2)=C(c2ccc(Cl)cc2)C1 [Venetoclax] + Cn1cnc2c(F)c(Nc3ccc(Br)cc3Cl)c(C(=O)NOCCO)cc21 [Selumetinib] (first compound max 1 µM, 7x7, partner max 3 µM)",0.198,0.147,0.71,0.571,0.65,0.0851,0.42,0.684,0.622,0.217,0.385,0.161,0.183,0.291,0.479,0.455,0.806,0.156,0.172,1
